Results as given in ChEMBL document CHEMBL2380198, “SAR and evaluation of novel 5H-benzo[c][1,8]naphthyridin-6-one analogs as Aurora kinase inhibitors” (Bioorg Med Chem Lett, 2013).
Activity calls are given as the source filed them. No cut-off for these calls is given here.

Columns and labels:
Aurora kinase A = molecular target: T1, Aurora kinase A (Homo sapiens, UniProt O14965); assay: Inhibition of aurora-A (unknown origin)
T1 sequence (O14965 whole entry): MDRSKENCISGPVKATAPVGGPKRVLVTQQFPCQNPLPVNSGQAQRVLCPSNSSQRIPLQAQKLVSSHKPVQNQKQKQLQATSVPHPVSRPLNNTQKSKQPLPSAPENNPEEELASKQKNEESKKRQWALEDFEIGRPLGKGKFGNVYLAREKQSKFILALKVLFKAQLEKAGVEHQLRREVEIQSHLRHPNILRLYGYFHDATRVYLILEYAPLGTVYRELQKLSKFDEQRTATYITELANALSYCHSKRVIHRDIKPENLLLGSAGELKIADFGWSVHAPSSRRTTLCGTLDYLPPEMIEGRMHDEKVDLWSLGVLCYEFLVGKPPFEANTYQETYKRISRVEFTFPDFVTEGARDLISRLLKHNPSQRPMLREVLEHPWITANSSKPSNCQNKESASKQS

MIA PaCa-2 [1] = assay: Antiproliferative activity against human MIAPaCa2 cells; type: functional, cell-based
Aurora kinase B [2] = molecular target: T2, Aurora kinase B (Homo sapiens, UniProt Q96GD4); assay: Inhibition of aurora-B (unknown origin)
[3] = molecular target: Vascular endothelial growth factor receptor 3 (Homo sapiens, UniProt P35916); assay: Inhibition of Flt4 (unknown origin)
[4] = molecular target: High affinity nerve growth factor receptor (Homo sapiens, UniProt P04629); assay: Inhibition of TrkA (unknown origin)
Aurora kinase B [5] = molecular target: T2, Aurora kinase B; assay: Inhibition of aurora-B in human MIAPaCa2 cells assessed as reduction of phosphorylation of histone H3; type: cell-based, MIA PaCa-2
[6] = molecular target: Proto-oncogene tyrosine-protein kinase receptor Ret (Homo sapiens, UniProt P07949); assay: Inhibition of Ret (unknown origin)
[7] = molecular target: T3, Mitogen-activated protein kinase 13 (Homo sapiens, UniProt O15264); assay: Inhibition of SAPK4 (unknown origin)
T3 sequence (O15264 whole entry): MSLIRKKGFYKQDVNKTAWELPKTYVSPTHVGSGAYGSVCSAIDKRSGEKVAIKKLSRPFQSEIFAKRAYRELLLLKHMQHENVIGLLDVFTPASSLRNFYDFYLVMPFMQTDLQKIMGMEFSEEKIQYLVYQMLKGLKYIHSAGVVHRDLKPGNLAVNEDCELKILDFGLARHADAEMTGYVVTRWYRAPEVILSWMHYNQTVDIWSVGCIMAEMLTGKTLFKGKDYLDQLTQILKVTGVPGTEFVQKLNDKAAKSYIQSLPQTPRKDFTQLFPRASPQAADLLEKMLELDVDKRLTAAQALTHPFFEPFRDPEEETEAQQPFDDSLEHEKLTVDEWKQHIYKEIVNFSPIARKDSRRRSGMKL

[8] = molecular target: Serine/threonine-protein kinase SIK1 (Homo sapiens, UniProt P57059); assay: Inhibition of SIK (unknown origin)
Activated CDC42 kinase 1 = Activated CDC42 kinase 1 (Homo sapiens, UniProt Q07912); assay: Inhibition of ACK1 (unknown origin)
LIM domain kinase 1 = LIM domain kinase 1 (Homo sapiens, UniProt P53667); assay: Inhibition of LIMK1 (unknown origin)
[9] = molecular target: Serine/threonine-protein kinase WNK3 (Homo sapiens, UniProt Q9BYP7); assay: Inhibition of WNK3 (unknown origin)
[10] = molecular target: Tyrosine-protein kinase HCK (Homo sapiens, UniProt P08631); assay: Inhibition of Hck (unknown origin)
[11] = molecular target: Serine/threonine-protein kinase Chk2 (Homo sapiens, UniProt O96017); assay: Inhibition of CHK2 (unknown origin)
[12] = Solubility of the compound; type: physicochemical
[13] = molecular target: Fibroblast growth factor receptor 1 (Homo sapiens, UniProt P11362); assay: Inhibition of FGFR1 (unknown origin)
[14] = Oral bioavailability in mouse at 5 mg/kg; type: ADME, organism-based; details: in vivo
[15] = Half life in mouse at 5 mg/kg, iv; type: ADME, organism-based; parameters: dose 5 mg/kg, route intravenous; details: in vivo
[16] = molecular target: Tyrosine-protein kinase Blk (Homo sapiens, UniProt P51451); assay: Inhibition of Blk (unknown origin)
[17] = molecular target: Macrophage colony-stimulating factor 1 receptor (Homo sapiens, UniProt P07333); assay: Inhibition of Fms (unknown origin)
[18] = Cmax in mouse at 5 mg/kg, iv; type: ADME, organism-based; parameters: dose 5 mg/kg, route intravenous; details: in vivo
[19] = Cmax in mouse at 5 mg/kg, po; type: ADME, organism-based; parameters: dose 5 mg/kg, route oral; details: in vivo
[20] = Volume of distribution at steady state in mouse at 5 mg/kg, iv; type: ADME, organism-based; parameters: dose 5 mg/kg, route intravenous; details: in vivo, read-out: Vdss
Mus musculus = assay: Inhibition of aurora-B in mouse bone marrow assessed as reduction of phosphorylation of histone H3 at 150 and 300 mg/kg, po after 2 hrs; type: functional
[21] = molecular target: Tyrosine-protein kinase ABL2 (Homo sapiens, UniProt P42684); assay: Inhibition of Arg (unknown origin)
[22] = AUC in mouse at 5 mg/kg, po; type: ADME, organism-based; parameters: dose 5 mg/kg, route oral; details: plasma
[23] = Half life in mouse at 5 mg/kg, po; type: ADME, organism-based; parameters: dose 5 mg/kg, route oral; details: in vivo
MIA PaCa-2 [24] = assay: Induction of endoreduplication human MIAPaCa2 cells assessed as accumulation of cells with >4N DNA content after 24 hrs; type: functional, cell-based
[25] = Clearance in mouse at 5 mg/kg, iv; type: ADME, organism-based; parameters: dose 5 mg/kg, route intravenous; details: in vivo
[26] = AUC in mouse at 5 mg/kg, iv; type: ADME, organism-based; parameters: dose 5 mg/kg, route intravenous; details: plasma

T2 sequence (Q96GD4 whole entry): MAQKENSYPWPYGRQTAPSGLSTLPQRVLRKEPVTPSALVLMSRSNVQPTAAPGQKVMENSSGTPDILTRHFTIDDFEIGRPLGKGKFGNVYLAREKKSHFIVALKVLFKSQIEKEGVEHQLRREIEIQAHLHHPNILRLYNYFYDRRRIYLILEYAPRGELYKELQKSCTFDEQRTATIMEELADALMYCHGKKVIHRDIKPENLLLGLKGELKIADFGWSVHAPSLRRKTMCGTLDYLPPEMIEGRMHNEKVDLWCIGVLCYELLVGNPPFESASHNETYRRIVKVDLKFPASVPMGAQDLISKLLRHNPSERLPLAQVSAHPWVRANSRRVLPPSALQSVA
Chain of LIM domain kinase 1 (P53667 whole entry, the tested form may be a part): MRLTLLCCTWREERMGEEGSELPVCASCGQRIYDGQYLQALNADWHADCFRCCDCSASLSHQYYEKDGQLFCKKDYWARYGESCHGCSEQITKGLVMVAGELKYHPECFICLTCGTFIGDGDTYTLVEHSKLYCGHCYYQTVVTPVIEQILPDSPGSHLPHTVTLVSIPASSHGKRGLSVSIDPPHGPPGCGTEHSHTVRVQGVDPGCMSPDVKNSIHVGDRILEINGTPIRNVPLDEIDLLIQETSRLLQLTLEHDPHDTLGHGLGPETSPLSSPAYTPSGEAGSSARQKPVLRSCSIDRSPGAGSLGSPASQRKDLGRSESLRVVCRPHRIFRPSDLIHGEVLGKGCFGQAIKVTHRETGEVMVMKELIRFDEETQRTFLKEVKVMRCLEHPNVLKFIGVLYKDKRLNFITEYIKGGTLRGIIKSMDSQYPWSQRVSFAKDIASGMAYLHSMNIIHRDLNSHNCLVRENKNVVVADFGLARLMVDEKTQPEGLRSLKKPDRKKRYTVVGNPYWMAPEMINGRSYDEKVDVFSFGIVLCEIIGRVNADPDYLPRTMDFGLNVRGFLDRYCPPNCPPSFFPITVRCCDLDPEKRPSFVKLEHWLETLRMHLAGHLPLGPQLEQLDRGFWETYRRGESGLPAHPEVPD
Chain of Proto-oncogene tyrosine-protein kinase receptor Ret (P07949 whole entry): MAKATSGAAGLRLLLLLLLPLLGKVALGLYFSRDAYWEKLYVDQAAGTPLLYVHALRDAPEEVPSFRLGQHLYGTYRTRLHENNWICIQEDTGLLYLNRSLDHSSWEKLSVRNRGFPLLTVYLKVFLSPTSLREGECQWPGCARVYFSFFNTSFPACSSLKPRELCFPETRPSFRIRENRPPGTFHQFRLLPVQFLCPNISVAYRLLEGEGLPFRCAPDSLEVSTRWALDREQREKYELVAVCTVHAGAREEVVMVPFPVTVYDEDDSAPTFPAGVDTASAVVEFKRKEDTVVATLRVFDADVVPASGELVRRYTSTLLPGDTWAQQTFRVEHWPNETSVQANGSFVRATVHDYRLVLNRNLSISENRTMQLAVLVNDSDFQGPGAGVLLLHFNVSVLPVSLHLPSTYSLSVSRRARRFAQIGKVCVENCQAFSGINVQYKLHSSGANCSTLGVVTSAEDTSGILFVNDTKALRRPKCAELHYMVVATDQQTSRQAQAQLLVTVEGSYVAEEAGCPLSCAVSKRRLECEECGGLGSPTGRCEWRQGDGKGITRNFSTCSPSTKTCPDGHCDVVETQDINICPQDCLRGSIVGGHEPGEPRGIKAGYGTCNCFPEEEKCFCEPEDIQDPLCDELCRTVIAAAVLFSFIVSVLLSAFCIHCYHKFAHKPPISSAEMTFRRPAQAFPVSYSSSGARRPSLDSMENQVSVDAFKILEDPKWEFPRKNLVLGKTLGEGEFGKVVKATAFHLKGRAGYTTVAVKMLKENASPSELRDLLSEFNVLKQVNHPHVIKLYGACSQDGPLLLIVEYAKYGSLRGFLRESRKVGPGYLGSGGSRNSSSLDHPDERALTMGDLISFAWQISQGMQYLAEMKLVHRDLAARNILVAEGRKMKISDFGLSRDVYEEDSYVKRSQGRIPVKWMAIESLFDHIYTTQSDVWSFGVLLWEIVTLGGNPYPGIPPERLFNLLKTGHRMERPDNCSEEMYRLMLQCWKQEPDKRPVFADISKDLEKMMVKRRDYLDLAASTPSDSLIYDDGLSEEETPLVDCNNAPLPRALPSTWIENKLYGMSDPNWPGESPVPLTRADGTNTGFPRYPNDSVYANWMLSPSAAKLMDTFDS
Chain of Serine/threonine-protein kinase Chk2 (O96017 whole entry): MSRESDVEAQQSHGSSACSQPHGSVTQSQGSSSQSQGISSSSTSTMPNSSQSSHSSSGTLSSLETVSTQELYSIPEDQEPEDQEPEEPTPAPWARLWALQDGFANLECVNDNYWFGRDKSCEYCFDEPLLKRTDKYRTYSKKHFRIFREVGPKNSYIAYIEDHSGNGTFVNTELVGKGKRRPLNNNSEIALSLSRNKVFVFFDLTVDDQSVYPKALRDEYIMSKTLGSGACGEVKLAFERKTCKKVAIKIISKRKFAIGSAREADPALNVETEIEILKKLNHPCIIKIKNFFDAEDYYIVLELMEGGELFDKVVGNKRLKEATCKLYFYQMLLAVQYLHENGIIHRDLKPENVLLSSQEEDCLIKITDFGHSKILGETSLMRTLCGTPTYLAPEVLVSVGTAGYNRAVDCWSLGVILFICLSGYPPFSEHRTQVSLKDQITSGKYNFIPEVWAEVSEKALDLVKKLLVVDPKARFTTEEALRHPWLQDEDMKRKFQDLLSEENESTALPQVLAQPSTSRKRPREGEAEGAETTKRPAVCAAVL
Chain of Vascular endothelial growth factor receptor 3 (P35916 whole entry): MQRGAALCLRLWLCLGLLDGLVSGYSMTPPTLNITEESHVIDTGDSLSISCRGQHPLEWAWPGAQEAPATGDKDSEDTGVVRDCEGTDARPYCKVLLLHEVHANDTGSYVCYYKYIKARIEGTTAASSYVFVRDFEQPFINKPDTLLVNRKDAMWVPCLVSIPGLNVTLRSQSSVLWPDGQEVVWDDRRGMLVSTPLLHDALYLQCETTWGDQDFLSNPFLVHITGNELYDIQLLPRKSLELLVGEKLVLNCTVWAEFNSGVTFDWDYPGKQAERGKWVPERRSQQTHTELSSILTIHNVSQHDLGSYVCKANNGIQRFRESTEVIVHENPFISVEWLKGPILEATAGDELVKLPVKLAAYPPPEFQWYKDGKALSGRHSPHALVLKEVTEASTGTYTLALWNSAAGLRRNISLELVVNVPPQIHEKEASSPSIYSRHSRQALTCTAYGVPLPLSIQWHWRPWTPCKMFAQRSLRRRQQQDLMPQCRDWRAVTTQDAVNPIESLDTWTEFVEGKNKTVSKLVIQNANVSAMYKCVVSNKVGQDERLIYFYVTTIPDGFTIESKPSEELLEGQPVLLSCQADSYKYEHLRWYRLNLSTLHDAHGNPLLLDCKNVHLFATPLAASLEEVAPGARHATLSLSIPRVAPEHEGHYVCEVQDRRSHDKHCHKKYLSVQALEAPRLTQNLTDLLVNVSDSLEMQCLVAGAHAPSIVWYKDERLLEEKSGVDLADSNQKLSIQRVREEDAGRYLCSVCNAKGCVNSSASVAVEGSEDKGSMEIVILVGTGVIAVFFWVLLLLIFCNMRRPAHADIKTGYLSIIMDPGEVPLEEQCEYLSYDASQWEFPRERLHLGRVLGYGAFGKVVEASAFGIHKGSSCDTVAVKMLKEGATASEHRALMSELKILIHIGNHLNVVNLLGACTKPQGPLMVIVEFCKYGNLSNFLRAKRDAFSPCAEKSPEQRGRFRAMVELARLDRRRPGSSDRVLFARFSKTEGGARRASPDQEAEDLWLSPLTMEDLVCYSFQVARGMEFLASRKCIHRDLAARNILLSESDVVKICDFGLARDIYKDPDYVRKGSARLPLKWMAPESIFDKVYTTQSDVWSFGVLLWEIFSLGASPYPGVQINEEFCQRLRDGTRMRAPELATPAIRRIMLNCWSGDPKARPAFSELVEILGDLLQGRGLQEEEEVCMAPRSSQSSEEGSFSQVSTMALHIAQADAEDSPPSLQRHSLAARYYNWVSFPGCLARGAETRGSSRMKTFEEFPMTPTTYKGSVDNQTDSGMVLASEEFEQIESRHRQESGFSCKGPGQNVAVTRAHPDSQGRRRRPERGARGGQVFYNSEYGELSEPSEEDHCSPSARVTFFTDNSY
Chain of Activated CDC42 kinase 1 (Q07912 whole entry, the tested form may be a part): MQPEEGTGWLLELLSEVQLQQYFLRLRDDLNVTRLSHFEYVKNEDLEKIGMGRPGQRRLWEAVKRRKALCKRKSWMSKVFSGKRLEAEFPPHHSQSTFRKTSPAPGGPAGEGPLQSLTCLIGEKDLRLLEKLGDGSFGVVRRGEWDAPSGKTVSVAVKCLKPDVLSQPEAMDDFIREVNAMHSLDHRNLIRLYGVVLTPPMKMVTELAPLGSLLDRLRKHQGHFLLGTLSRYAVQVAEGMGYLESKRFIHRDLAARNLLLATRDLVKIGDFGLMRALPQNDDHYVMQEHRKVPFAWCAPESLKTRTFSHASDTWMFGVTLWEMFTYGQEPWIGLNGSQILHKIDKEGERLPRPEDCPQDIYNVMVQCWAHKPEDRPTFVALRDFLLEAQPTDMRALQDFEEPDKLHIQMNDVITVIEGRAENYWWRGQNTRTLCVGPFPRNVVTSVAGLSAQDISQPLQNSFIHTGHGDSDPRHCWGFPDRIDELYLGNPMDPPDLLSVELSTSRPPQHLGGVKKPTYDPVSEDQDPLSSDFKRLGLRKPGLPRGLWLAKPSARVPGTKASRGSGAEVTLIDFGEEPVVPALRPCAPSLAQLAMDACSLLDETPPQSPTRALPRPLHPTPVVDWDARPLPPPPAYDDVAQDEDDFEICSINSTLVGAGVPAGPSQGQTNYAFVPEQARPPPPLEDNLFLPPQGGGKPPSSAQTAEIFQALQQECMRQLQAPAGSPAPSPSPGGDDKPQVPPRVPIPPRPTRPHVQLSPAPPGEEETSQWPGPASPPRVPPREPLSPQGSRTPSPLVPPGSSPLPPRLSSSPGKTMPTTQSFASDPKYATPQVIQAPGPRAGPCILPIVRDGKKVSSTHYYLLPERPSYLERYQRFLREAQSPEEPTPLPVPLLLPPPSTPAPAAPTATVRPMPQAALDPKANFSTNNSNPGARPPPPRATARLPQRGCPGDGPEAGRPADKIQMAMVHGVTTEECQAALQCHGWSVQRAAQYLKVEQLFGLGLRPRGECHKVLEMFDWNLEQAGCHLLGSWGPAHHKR

Row | SMILES | IC50 (Aurora kinase A) [µM] | IC50 (MIA PaCa-2 [1]) [µM] | IC50 (Aurora kinase B [2]) [µM] | further results
1 | O=C(Nc1ccc(Nc2ccnc3[nH]c(=O)c4ccccc4c23)cc1)c1ccc(C(F)(F)F)cc1F | 0.009 | 4.99 | – | –
2 | O=C(Nc1ccc(Nc2ccnc3[nH]c(=O)c4ccccc4c23)cc1)c1ccc(F)cc1 | 0.004 | 0.719 | 0.001 | –
3 | Cc1ccc(C(=O)Nc2ccc(Nc3ccnc4[nH]c(=O)c5ccccc5c34)cc2)cc1 | 0.003 | 2.39 | 0.002 | –
4 | Nc1ccnc2[nH]c(=O)c3ccccc3c12 | 3.01 | – | – | –
5 | O=C(Nc1ccc(Nc2ccnc3[nH]c(=O)c4ccccc4c23)cc1)c1cccc(F)c1 | 0.007 | 0.919 | 0.001 | –
6 | O=C(Nc1ccc(Nc2ccnc3[nH]c(=O)c4ccccc4c23)cc1)c1cccc(C(F)(F)F)c1F | 0.007 | 0.253 | 0.001 | –
7 | Nc1ccc(Nc2ccnc3[nH]c(=O)c4ccccc4c23)cc1 | 1.15 | – | 0.174 | –
8 | O=C(Nc1ccc(Nc2ccnc3[nH]c(=O)c4ccccc4c23)cc1)c1cc(F)cc(C(F)(F)F)c1 | 0.009 | 0.211 | – | –
9 | CNc1ccc(Nc2ccnc3[nH]c(=O)c4ccccc4c23)cc1 | 0.471 | – | – | –
10 | O=C(Nc1ccc(Nc2ccnc3[nH]c(=O)c4ccccc4c23)cc1)c1cccc(F)c1F | 0.002 | 0.209 | 0.0005 | –
11 | O=c1[nH]c2nccc(Nc3ccccc3)c2c2ccccc12 | 1.03 | – | – | –
12 | O=C(Nc1ccc(Nc2ccnc3[nH]c(=O)c4ccccc4c23)cc1)c1ccccc1 | 0.004 | 0.329 | 0.001 | IC50 [3]: 0.417 µM; IC50 [4]: 0.819 µM; IC50 (Aurora kinase B [5]): 0.208 µM; IC50 [6]: 0.015 µM; IC50 [7]: 0.411 µM; IC50 [8]: 0.211 µM; IC50 (Activated CDC42 kinase 1): 0.149 µM; IC50 (LIM domain kinase 1): 0.036 µM; IC50 [9]: 0.401 µM; IC50 [10]: 0.958 µM; IC50 [11]: 0.041 µM; solubility [12]: < 1 µM; IC50 [13]: 0.175 µM
13 | O=c1[nH]c2nccc(Cl)c2c2ccccc12 | 3.01 | – | 1.44 | –
14 | O=C(Nc1ccc(Nc2ccnc3[nH]c(=O)c4ccccc4c23)cc1)c1ccc(F)cc1C(F)(F)F | 0.0003 | 0.17 | 0.0004 | IC50 [3]: 0.867 µM; bioavailability [14]: 41%; IC50 (Aurora kinase B [5]): 0.052 µM; IC50 [6]: 0.706 µM; half-life [15]: 1.36 h; IC50 [16]: 0.959 µM; IC50 [17]: 0.575 µM; Cmax [18]: 3930 ng/mL; Cmax [19]: 321 ng/mL; Vd [20]: 1.48 L/kg; IC50 (LIM domain kinase 1): 0.018 µM; inhibition in vivo at 300 mg/kg (Mus musculus): 40%; IC50 [21]: 0.863 µM; AUC [22]: 1440 ng·h/mL; half-life [23]: 2.74 h; Activity (MIA PaCa-2 [24]): Active; clearance [25]: 19.7 mL/min/kg; AUC [26]: 4190 ng·h/mL; IC50 [11]: 0.161 µM
15 | O=C(Nc1ccc(Nc2ccnc3[nH]c(=O)c4ccccc4c23)cc1)c1ccccc1C(F)(F)F | 0.004 | 0.405 | 0.001 | –
16 | O=C(Nc1ncc(Nc2ccnc3[nH]c(=O)c4ccccc4c23)cn1)c1ccccc1 | 0.088 | – | 0.021 | –
17 | COc1cccc(F)c1C(=O)Nc1ccc(Nc2ccnc3[nH]c(=O)c4ccccc4c23)cc1 | 0.003 | 1.19 | 0.001 | –
18 | O=C(Nc1ccc(Nc2ccnc3[nH]c(=O)c4ccccc4c23)cc1)c1ccc(F)cc1F | 0.002 | 0.374 | 0.001 | –
19 | O=c1[nH]c2ncccc2c2ccccc12 | 5.54 | – | – | –
20 | O=C(Nc1ccc(Nc2ccnc3[nH]c(=O)c4ccccc4c23)cc1)c1cc(F)cc(F)c1 | 0.007 | 0.823 | 0.0007 | –
21 | O=C(Nc1ccc(Nc2ccnc3[nH]c(=O)c4ccccc4c23)cn1)c1ccccc1 | 0.07 | – | 0.013 | –
22 | O=C(Nc1ccc(Nc2ccnc3[nH]c(=O)c4ccccc4c23)nc1)c1ccccc1 | 0.615 | – | 0.079 | –
23 | O=C(Nc1ccc(Nc2ccnc3[nH]c(=O)c4ccccc4c23)cc1)c1ccc(C(F)(F)F)cc1 | 0.027 | 2.71 | 0.006 | –
24 | O=C(Nc1ccc(Nc2ccnc3[nH]c(=O)c4ccccc4c23)cc1)c1ccc(F)c(F)c1 | 0.007 | 0.409 | 0.0008 | –
25 | O=C(Nc1ccc(Nc2ccnc3[nH]c(=O)c4ccccc4c23)cc1)c1c(F)cccc1F | 0.005 | 0.293 | 0.0006 | –
26 | COc1ccccc1C(=O)Nc1ccc(Nc2ccnc3[nH]c(=O)c4ccccc4c23)cc1 | 0.007 | 2.22 | 0.002 | –
27 | O=C(Nc1ccc(Nc2ccnc3[nH]c(=O)c4ccccc4c23)cc1)c1ccccc1F | 0.009 | 6.25 | 0.002 | –
